Key:
[1] = tested on: MEIS1 mRNA expression; assay: MEIS1 mRNA expression assay (Quantigene Singleplex) in MOLM14 cells; assay type: cell-based, human; conditions: 48 hours incubation
Procedure, shortened: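 MOLM14 cells, 3,750/well, exposed to increasing compound concentrations for 48 h. MEIS1 mRNA measured by QuantiGene Singleplex branched-DNA hybridization (lysis 45 min, hybridization 18–22 h, both 55 °C), normalized to RPL28. IC50 fitted to background-corrected fold change versus DMSO.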

[2] = target: T1, menin/MLL (terbium chelate-labeled menin, FITC-MBM1 peptide) (Homo sapiens, UniProt O00255, T541A); assay: Menin/MLL homogenous time-resolved fluorescence (HTRF) assay; assay type: binding; conditions: 30 min incubation
T1 construct: Menin (a.a 1-610-6xhis tag, 2.3 mg/mL in 20 mM Hepes)
T1 sequence (O00255 with tags, fused parts or gaps T541A): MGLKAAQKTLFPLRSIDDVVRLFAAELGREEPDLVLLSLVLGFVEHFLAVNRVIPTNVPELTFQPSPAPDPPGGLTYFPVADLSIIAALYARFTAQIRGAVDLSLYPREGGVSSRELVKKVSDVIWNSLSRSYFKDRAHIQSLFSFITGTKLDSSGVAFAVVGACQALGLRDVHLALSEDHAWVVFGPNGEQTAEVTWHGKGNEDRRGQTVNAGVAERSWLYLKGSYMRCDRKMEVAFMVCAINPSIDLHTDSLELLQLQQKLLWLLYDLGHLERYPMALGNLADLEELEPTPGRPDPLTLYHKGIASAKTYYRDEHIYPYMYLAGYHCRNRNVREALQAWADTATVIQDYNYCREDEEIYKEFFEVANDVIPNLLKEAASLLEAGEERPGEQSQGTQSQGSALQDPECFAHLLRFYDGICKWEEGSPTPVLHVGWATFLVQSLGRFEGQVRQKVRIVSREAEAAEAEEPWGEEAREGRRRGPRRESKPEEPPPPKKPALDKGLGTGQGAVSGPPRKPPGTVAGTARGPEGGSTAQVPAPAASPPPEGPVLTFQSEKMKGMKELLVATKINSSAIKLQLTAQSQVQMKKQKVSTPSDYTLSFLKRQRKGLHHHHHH
Procedure, shortened: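 Terbium-labeled menin (a.a. 1-610, His-tagged; […]) pre-incubated 30 min with compound, then 75 nM FITC-MBM1 peptide added for 15 min at ambient temperature in Tris pH 7.5 buffer, 0.5% DMSO. HTRF 520/490 nm ratio read; IC50 from 11-point four-fold titrations, typically from 10 μM.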

Structure (SMILES) | IC50 ([1]; Homo sapiens, MOLM-14, 48 h) [nM] | IC50 [2] [nM] | IC50 [1] [nM]
CC(=O)N1CC[C@H](CN2CCC(Cc3cn(-c4ccc(F)cc4C(=O)N(C)C(C)C)c4cncc(C)c34)CC2)C1 [Compound 113] | ~493 | 0.642 | –
CC(=O)N1CC(CN2CC(Cc3cn(-c4ccc(F)cc4C(=O)N(C)C(C)C)c4cncc(C)c34)C2)C1 [Compound 114] | 487 | 0.173 | –
Cc1cncc2c1c(CC1CN(C[C@H]3CC[C@H](NS(C)(=O)=O)CC3)C1)cn2-c1ccc(F)cc1C(=O)N(C)C(C)C [Compound 115] | 11 | 0.021 | –
CC(=O)N[C@H]1CC[C@H](CN2CC(Cc3cn(-c4ccc(F)cc4C(=O)N(C)C(C)C)c4cncc(C)c34)C2)CC1 [Compound 118] | 117 | 0.139 | –
CNC(=O)C1CC(CN2CCC(Cc3cn(-c4ccc(F)cc4C(=O)N(C)C(C)C)c4cncc(C)c34)CC2)C1 (stereo not shown) [Compound 129] | 277 | 0.291 | –
CC(=O)N1CCC(CN2C[C@H](Cc3cn(-c4ccc(F)cc4C(=O)N(C)C(C)C)c4cncc(C)c34)C[C@H]2C)CC1 [Compound 130] | 314 | 1.2 | –
CC(=O)N1CCC(CN2C[C@@H](Cc3cn(-c4ccc(F)cc4C(=O)N(C)C(C)C)c4cncc(C)c34)C[C@H]2C)CC1 [Compound 131] | 129 | 0.132 | –
CC(=O)N1CCC(CN2C[C@H](Cc3cn(-c4ccc(F)cc4C(=O)N(C)C(C)C)c4cncc(C)c34)C[C@@H]2C)CC1 [Compound 132] | ~573 | 1.21 | –
CC(=O)N1CCC(CN2C[C@@H](Cc3cn(-c4ccc(F)cc4C(=O)N(C)C(C)C)c4cncc(C)c34)C[C@@H]2C)CC1 [Compound 133] | 42 | 0.051 | –
Cc1cncc2c1c(CC1CN(C[C@H]3CC[C@H](C(=O)N(C)C)CC3)C1)cn2-c1ccc(F)cc1C(=O)N(C)C(C)C [Compound 142] | 10 | 0.086 | –
CCNC(=O)[C@H]1CC[C@H](CN2CC(Cc3cn(-c4ccc(F)cc4C(=O)N(C)C(C)C)c4cncc(C)c34)C2)CC1 [Compound 143] | 5 | 0.064 | –
CC(=O)N1CCC(CN2CCC[C@H](Cc3cn(-c4ccc(F)cc4C(=O)N(C)C(C)C)c4cncc(C)c34)C2)CC1 [Compound 145] | ~748 | 1.06 | –
CC(=O)N1CCC(CN2CCC[C@@H](Cc3cn(-c4ccc(F)cc4C(=O)N(C)C(C)C)c4cncc(C)c34)C2)CC1 [Compound 146] | > 1000 | 1.22 | –
Cc1cncc2c1c(C[C@@H]1CCN(CC3CCN(C(=O)N(C)C)CC3)C1)cn2-c1ccc(F)cc1C(=O)N(C)C(C)C [Compound 149] | 23 | 0.037 | –
Cc1cncc2c1c(C[C@@H]1CCN(CC3CCN(C(=O)NC4CC4)CC3)C1)cn2-c1ccc(F)cc1C(=O)N(C)C(C)C [Compound 152] | 197 | 0.053 | –
CC(=O)N1CCC(CN2CCCC(Cc3cn(-c4ccc(F)cc4C(=O)N(C)C(C)C)c4cncc(C)c34)CC2)CC1 (stereo not shown) [Compound 160] | > 1000 | 4.02 | –
Cc1cncc2c1c(C[C@@H]1CCN(C[C@H]3CC[C@H](C(=O)N4CCC4)CC3)C1)cn2-c1ccc(F)cc1C(=O)N(C)C(C)C [Compound 179] | 259 | 0.405 | –
CC(=O)N1C[C@@H]2[C@@H](CN3CC[C@@H](Cc4cn(-c5ccc(F)cc5C(=O)N(C)C(C)C)c5cncc(C)c45)C3)[C@@H]2C1 [Compound 187] | 1940 | 1.02 | –
Cc1cncc2c1c(C[C@@H]1CCN(CC3CCCCC3)C1)cn2-c1ccc(F)cc1C(=O)N(C)C(C)C [Compound 193] | 41 | 0.071 | –
Cc1cncc2c1c(C[C@H]1CCN(CC3CCCCC3)C1)cn2-c1ccc(F)cc1C(=O)N(C)C(C)C [Compound 194] | 66 | 0.072 | –
Cc1cncc2c1c(CC1CCN(CC3CCC(=O)NC3)CC1)cn2-c1ccc(F)cc1C(=O)N(C)C(C)C (stereo not shown) [Compound 195] | 156 | 0.153 | –
Cc1cncc2c1c(CC1CN(CC3CNCC(=O)C3)C1)cn2-c1ccc(F)cc1C(=O)N(C)C(C)C (stereo not shown) [Compound 196] | 438 | 0.19 | –
CC(=O)NC1CCC(N2CC[C@H](Cc3cn(-c4ccc(F)cc4C(=O)N(C)C(C)C)c4cncc(C)c34)C2)CC1 (stereo partly shown) [Compound 210] | – | 0.602 | > 1000

— US20230250096A1, “SUBSTITUTED PHENYL-1H-PYRROLO[2,3-c] PYRIDINE DERIVATIVES” (Janssen Pharmaceutica NV, priority 2021, published 2023)
